Each structure is given as a SMILES string.

What all share (assay type): cell-based
In one test the test system is KOPM28 cells. The test can be described thus: human CML cell proliferation inhibition. The settings on record: 72 hours, Cell Counting Kit-8. Here is the method:
(§1) In order to evaluate the therapeutic effect of the compound according to the present invention on chronic myelogenous leukemia (CML), the following experiment was performed, and the results are shown in Table 6 below. Inhibitory activity to Bcr-Abl kinase was evaluated through the experiment using TCCS and KOPM28 cells, and inhibitory activity to T315I-Bcr-Abl kinase was evaluated through the experiment using T315I-TCCS and T315I-KOPM28 cells.
(§2) Human chronic myelogenous leukemia (CML) cells used in the experiment were TCCS, T315I-TCCS, KOPM28 and T315I-KOPM28, and the four types of cells were provided by University of Yamanashi.
(§3) Four types of human CML cells were each seeded in 96-well plates at the density of 1×10^4/90 μL/well. A culture solution containing 9 concentrations (0.000256 to 100 μM) of each example compound serially diluted in 5 folds or DMSO (control) were added to the plate (10 μL/well) to a final concentration of 0 to 10 μM. The plate was incubated in a 37° C. CO2 incubator for 72 hours.
(§4) After incubation for 72 hours, the plate treated with the compound was treated with Cell Counting Kit-8 (Dojindo Molecular Technologies, Inc) solution at the concentration of 10 μL/well, and then mixed well. Then, the plate was incubated in a CO2 incubator at 37° C. for 2 hours, and absorbance at 450 nm was measured with a microplate reader. Data were expressed as percentage compared to vehicle treated cells and GI50 values were calculated using GraphPad Prism 8.0 (GraphPad software Inc., San Diego).
(In general: Formazan colour is commonly taken as a measure of viable cells.)

A further test concerns TCCS cells. The experiment in a line: human CML cell proliferation inhibition. The settings on record: 72 hours, Cell Counting Kit-8. Here is the method: as §1, §2, §3, §4
In the next test the test system is T315I-KOPM28 cells. The test can be described thus: human CML cell proliferation inhibition. The settings on record: 72 hours, Cell Counting Kit-8. Here is the method: as §1, §2, §3, §4
A further test has as its system T315I-TCCS cells. The test can be described thus: human CML cell proliferation inhibition. The settings on record: 72 hours, Cell Counting Kit-8. Here is the method: as §1, §2, §3, §4
The test system of a further test is Parental (Ba/F3). The experiment in a line: Ba/F3 cell proliferation inhibition. The settings on record: BaF3; 72 hours, Cell Counting Kit-8. On the procedure:
(§5) […] lymphocyte cells, Parental (Ba/F3) and T315I-Bcr-Abl (Ba/F3) were seeded in 96-well plates at the density of 1×10^4/90 μL/well. A culture solution containing 9 concentrations (0.015 to 100 μM) of each example compound serially diluted in 3 folds or DMSO (control) were added to the plate ([…]) to a final concentration of 0 to 10 μM. The plate was incubated in a 37° C. CO2 incubator for 72 hours.
(§6) After incubation for 72 hours, the plate treated with the compound was treated with Cell Counting Kit-8 (Dojindo Molecular Technologies, Inc) solution at the concentration of 10 μL/well, and then mixed well. Then, the plate was incubated in a CO2 incubator at 37° C. for 2 hours, and absorbance at 450 nm was measured with a microplate reader. Data were expressed as percentage compared to vehicle treated cells and GI50 values were calculated using GraphPad Prism 5.0 (GraphPad software Inc., San Diego) […].

The test system of the next test is T315I-Bcr-Abl (Ba/F3). The experiment in a line: Ba/F3 cell proliferation inhibition. The following applies: BaF3; 72 hours, Cell Counting Kit-8. On the procedure: as §5, §6

The GI50 is the concentration giving 50% growth inhibition. Turning to `Cc1cc(F)c(C(=O)Nc2cc(CN3CC(OC(C)C)C3)cc(C(F)(F)F)c2)cc1C#Cc1cnc2c(Nc3cnn(C)c3)cccn12` [Example 72, 2-fluoro-N-(3-((3-isopropoxyazetidin-1-yl)methyl)-5-(trifluoromethyl)phenyl)-4-methyl-5-((8-((1-methyl-1H-pyrazol-4-yl)amino)imidazo[1,2-a]pyridin-3-yl)ethynyl)benzamide], the GI50 was less than 10 nM in the test on KOPM28 cells; less than 10 nM in the test with TCCS cells; greater than 100 nM with T315I-KOPM28 cells; greater than 100 nM in the test with T315I-TCCS cells; greater than 5000 nM with Parental (Ba/F3); 50 to 500 nM in the test with T315I-Bcr-Abl (Ba/F3).
With `Cc1cn(-c2cc(NC(=O)c3cc(F)c(C)c(C#Cc4cnc5c(Nc6cnn(C)c6)cccn45)c3)cc(C(F)(F)F)c2)cn1` [Example 5, 3-fluoro-4-methyl-N-(3-(4-methyl-1H-imidazol-1-yl)-5-(trifluoromethyl)phenyl)-5-((8-((1-methyl-1H-pyrazol-4-yl)amino)imidazo[1,2-a]pyridin-3-yl)ethynyl)benzamide], the GI50 in the test on KOPM28 cells is 100 nM; in the test on TCCS cells, 100 nM; in the test with T315I-KOPM28 cells it was 100 nM; in the test with T315I-TCCS cells, 100 nM; in the test with Parental (Ba/F3), greater than 5000 nM; with T315I-Bcr-Abl (Ba/F3), less than 50 nM.
Turning to `Cc1cc(F)c(C(=O)Nc2cc(CN3CCN(CCO)CC3)cc(C(F)(F)F)c2)cc1C#Cc1cnc2c(Nc3cnn(C)c3)cccn12` [Example 69, 2-fluoro-N-(3-((4-(2-hydroxyethyl)piperazin-1-yl)methyl)-5-(trifluoromethyl)phenyl)-4-methyl-5-((8-((1-methyl-1H-pyrazol-4-yl)amino)imidazo[1,2-a]pyridin-3-yl)ethynyl)benzamide], the GI50 in the test on KOPM28 cells is less than 10 nM; in the test with TCCS cells, 100 nM; with T315I-KOPM28 cells it was greater than 100 nM; with T315I-TCCS cells, greater than 100 nM; with Parental (Ba/F3), greater than 5000 nM; in the test on T315I-Bcr-Abl (Ba/F3) it was 50 to 500 nM.
In the case of `Cc1cc(F)c(C(=O)Nc2cc(CN3CCN(C)CC3)cc(C(C)(C)C#N)c2)cc1C#Cc1cnc2c(Nc3cnn(C)c3)cccn12` [Example 27, N-(3-(2-cyanopropan-2-yl)-5-((4-methylpiperazin-1-yl)methyl)phenyl)-2-fluoro-4-methyl-5-((8-((1-methyl-1H-pyrazol-4-yl)amino)imidazo[1,2-a]pyridin-3-yl)ethynyl)benzamide], the GI50 in the test on KOPM28 cells was less than 10 nM; in the test with TCCS cells, less than 10 nM; with T315I-KOPM28 cells, 100 nM; in the test on T315I-TCCS cells it was 100 nM; in the test with Parental (Ba/F3), 500 to 5000 nM; in the test with T315I-Bcr-Abl (Ba/F3) it was less than 50 nM.
On to `Cc1cc(F)c(C(=O)Nc2cc(N3CCN(C)C(=O)C3)cc(C(C)(C)C#N)c2)cc1C#Cc1cnc2c(Nc3cnn(C)c3)cccn12` [Example 24, N-(3-(2-cyanopropan-2-yl)-5-(4-methyl-3-oxopiperazin-1-yl)phenyl)-2-fluoro-4-methyl-5-((8-((1-methyl-1H-pyrazol-4-yl)amino)imidazo[1,2-a]pyridin-3-yl)ethynyl)benzamide], for which the GI50 with KOPM28 cells is less than 10 nM; with TCCS cells it was less than 10 nM; with T315I-KOPM28 cells, 100 nM; in the test with T315I-TCCS cells, 100 nM; in the test with Parental (Ba/F3) it was 500 to 5000 nM; with T315I-Bcr-Abl (Ba/F3) it was 50 to 500 nM.
Regarding `Cc1cc(F)c(C(=O)Nc2cc(N(C)CCN(C)C)cc(C(F)(F)F)c2)cc1C#Cc1cnc2c(Nc3cnn(C)c3)cccn12` [Example 48, N-(3-((2-(dimethylamino)ethyl)(methyl)amino)-5-(trifluoromethyl)phenyl)-2-fluoro-4-methyl-5-((8-((1-methyl-1H-pyrazol-4-yl)amino)imidazo[1,2-a]pyridin-3-yl)ethynyl)benzamide], the 50% growth inhibitory concentration (GI50) in the test with KOPM28 cells is less than 10 nM; in the test with TCCS cells it was less than 10 nM; with T315I-KOPM28 cells it was greater than 100 nM; with T315I-TCCS cells, 100 nM; in the test with Parental (Ba/F3), greater than 5000 nM; in the test on T315I-Bcr-Abl (Ba/F3), 50 to 500 nM.
`Cc1cc(F)c(C(=O)Nc2ccc(Cn3ccnc3)c(C(F)(F)F)c2)cc1C#Cc1cnc2c(Nc3cnn(C)c3)cccn12` [Example 63, N-(4-((1H-imidazol-1-yl)methyl)-3-(trifluoromethyl)phenyl)-2-fluoro-4-methyl-5-((8-((1-methyl-1H-pyrazol-4-yl)amino)imidazo[1,2-a]pyridin-3-yl)ethynyl)benzamide]: the GI50 in the test with KOPM28 cells is less than 10 nM; with TCCS cells it was less than 10 nM; in the test on T315I-KOPM28 cells, greater than 100 nM; with T315I-TCCS cells, greater than 100 nM; in the test with Parental (Ba/F3), greater than 5000 nM; in the test on T315I-Bcr-Abl (Ba/F3) it was 500 to 5000 nM.
For the molecule `Cc1cc(F)c(C(=O)Nc2cc(OCCN(C)C)cc(C(F)(F)F)c2)cc1C#Cc1cnc2c(Nc3cnn(C)c3)cccn12` [Example 50, N-(3-(2-(dimethylamino)ethoxy)-5-(trifluoromethyl)phenyl)-2-fluoro-4-methyl-5-((8-((1-methyl-1H-pyrazol-4-yl)amino)imidazo[1,2-a]pyridin-3-yl)ethynyl)benzamide], the concentration for 50% growth inhibition (GI50) was less than 10 nM in the test with KOPM28 cells; less than 10 nM with TCCS cells; greater than 100 nM in the test with T315I-KOPM28 cells; 100 nM in the test on T315I-TCCS cells; greater than 5000 nM with Parental (Ba/F3); 50 to 500 nM in the test on T315I-Bcr-Abl (Ba/F3).
Turning to `Cc1cc(F)c(C(=O)Nc2cc(N3CCN(C)CC3)cc(C(F)(F)F)c2)cc1C#Cc1cnc2c(Nc3cnn(C)c3)cccn12` [Example 47, 2-fluoro-4-methyl-5-((8-((1-methyl-1H-pyrazol-4-yl)amino)imidazo[1,2-a]pyridin-3-yl)ethynyl)-N-(3-(4-methylpiperazin-1-yl)-5-(trifluoromethyl)phenyl)benzamide], the GI50 in the test with KOPM28 cells was less than 10 nM; in the test with TCCS cells, less than 10 nM; in the test with T315I-KOPM28 cells, 100 nM; in the test on T315I-TCCS cells, 100 nM; in the test on Parental (Ba/F3), 500 to 5000 nM; with T315I-Bcr-Abl (Ba/F3), 50 to 500 nM.
Consider `Cc1cc(F)c(C(=O)Nc2ccc(CN3CCN(C)C(=O)C3)c(C(C)(C)C#N)c2)cc1C#Cc1cnc2c(Nc3cn[nH]c3)cccn12` [Example 93, 5-((8-((1H-pyrazol-4-yl)amino)imidazo[1,2-a]pyridin-3-yl)ethynyl)-N-(3-(2-cyanopropan-2-yl)-4-((4-methyl-3-oxopiperazin-1-yl)methyl)phenyl)-2-fluoro-4-methylbenzamide], for which the GI50 in the test on KOPM28 cells was less than 10 nM; in the test with TCCS cells it was less than 10 nM; in the test on T315I-KOPM28 cells it was greater than 100 nM; in the test with T315I-TCCS cells it was greater than 100 nM; in the test with Parental (Ba/F3) it was 500 to 5000 nM; with T315I-Bcr-Abl (Ba/F3), 50 to 500 nM.
For the molecule `Cc1cc(F)c(C(=O)Nc2cc(CN3CCC(N(C)C)C3)cc(C(C)(C)C#N)c2)cc1C#Cc1cnc2c(Nc3cn[nH]c3)cccn12` (stereo not drawn) [Example 85, 5-((8-((1H-pyrazol-4-yl)amino)imidazo[1,2-a]pyridin-3-yl)ethynyl)-N-(3-(2-cyanopropan-2-yl)-5-((3-(dimethylamino)pyrrolidin-1-yl)methyl)phenyl)-2-fluoro-4-methylbenzamide], the GI50 in the test on KOPM28 cells is less than 10 nM; in the test with TCCS cells, less than 10 nM; in the test with T315I-KOPM28 cells it was greater than 100 nM; with T315I-TCCS cells, 100 nM; in the test with Parental (Ba/F3), 500 to 5000 nM; with T315I-Bcr-Abl (Ba/F3), 50 to 500 nM.
For `Cc1cc(F)c(C(=O)Nc2cc(CN3CC(OC(C)C)C3)cc(C(C)(C)C#N)c2)cc1C#Cc1cnc2c(Nc3cnn(C)c3)cccn12` [Example 36, N-(3-(2-cyanopropan-2-yl)-5-((3-isopropoxyazetidin-1-yl)methyl)phenyl)-2-fluoro-4-methyl-5-((8-((1-methyl-1H-pyrazol-4-yl)amino)imidazo[1,2-a]pyridin-3-yl)ethynyl)benzamide], the 50% growth inhibitory concentration (GI50) with KOPM28 cells was less than 10 nM; in the test on TCCS cells it was less than 10 nM; in the test with T315I-KOPM28 cells, 100 nM; in the test with T315I-TCCS cells, 100 nM; in the test with Parental (Ba/F3) it was greater than 5000 nM; in the test with T315I-Bcr-Abl (Ba/F3) it was 50 to 500 nM.
As for `Cc1cc(F)c(C(=O)Nc2cc(-c3cccnc3)cc(C(F)(F)F)c2)cc1C#Cc1cnc2c(Nc3cn[nH]c3)cccn12` [Example 98, 5-((8-((1H-pyrazol-4-yl)amino)imidazo[1,2-a]pyridin-3-yl)ethynyl)-2-fluoro-4-methyl-N-(3-(pyridin-3-yl)-5-(trifluoromethyl)phenyl)benzamide], the 50% growth inhibitory concentration (GI50) in the test with KOPM28 cells is less than 10 nM; in the test with TCCS cells, less than 10 nM; in the test on T315I-KOPM28 cells it was greater than 100 nM; in the test on T315I-TCCS cells, 100 nM; with Parental (Ba/F3) it was greater than 5000 nM; in the test with T315I-Bcr-Abl (Ba/F3), 50 to 500 nM.

Values taken from patent US12673945B2, “3-((8-((1H-pyrazol-4-yl)amino)imidazo[1,2-a]pyridin-3-yl)ethinyl)-n-phenylbenzamide derivative, method for preparing same, and pharmaceutical composition containing same as active ingredient for prevention or treatment of cancer” (DAEGU-GYEONGBUK MEDICAL INNOVATION FOUNDATION, priority 2020, dated 2026).
